In patent US10695288B2, “Reactive oxygen species (ROS)-responsive compositions and methods thereof” (VANDERBILT UNIVERSITY, priority 2014, dated 2020):
One block for each compound: values may come before it.

Tests used:
MMP-13 = MMP-13 expression from PCR with TNF-α; format: cell-based, porcine; details: TNF-α alone
Description: (§1) TPCA-PPS microspheres were made as shown above. Chondrocytes were obtained from porcine cadavers prepared by the University of Tennessee Heath Science Center. MMPSense750 and XenoFluor 680 was obtained from PerkinElmer. Monoclonal antibodies to type II collagen were produced in our lab. C57BL/6 male mice were obtained from Jackson Laboratory (Maine, USA) and was acclimated in a housing facility before experimentation. A custom fit ElectroForce® 3200 (Bose Corp., Minnesota, USA) biomaterials test instrument was used for mechanical loading. The mechanical loading apparatus was custom made to fit the proximal tibia in the upper cup and dorsiflexed ankle in the bottom cup.

type II collagen = assay: IVIS imaging of MabCII fluorescence after knee mechanical overload; format: in vivo, C57BL/6 mice; details: knee injection, loading cycles; vs PBS; p=0.0181 for microspheres
Procedure: (§2) For the study, C57BL/6 mice knees were injected with TPCA-1-PPS microspheres, TPCA-1 in its soluble form, or a PBS saline control. The mice were then given loading cycles to induce damage to the knee via the Poulet model of knee overload. At the completion of the loading cycles, the mice were given fluorescent indicators and evaluated using IVIS (in vivo imaging system) for type II collagen (and indicator of cartilage damage), and MMP activity (implicated in the progression of OA). […] This difference was not seen in the mice given the soluble form of TPCA-1 however.
as §1

MMP-13 activity = assay: IVIS imaging of MMPSense fluorescence after knee mechanical overload; format: in vivo, C57BL/6 mice; details: knee injection, loading cycles; vs PBS; p=0.0184 for microspheres
Procedure: as §2, §1

[1] = Peroxynitrite scavenging in vitro (Pyrogallol Red bleaching assay); format: biochemical; details: 10 μM peroxynitrite; negative control
Procedure: The ability of PPS microspheres to scavenge peroxynitrite was tested in vitro using a Pyrogallol Red (PGR) bleaching assay. Treatment groups consisting of PBS, blank PPS microspheres (0.5-1.5 mg/mL), tempo-PPS microspheres (0.5 mg/mL), tempol (0.2 mg/mL, hydrophilic analog of tempo-benzoate), and ascorbic acid (negative control, pH adjusted to 7.4) were prepared in a 48-well plate with 500 μL volume per well. A PGR stock solution was prepared in PBS ([…]) and 10 μL was added to each well. Peroxynitrite stock solution was thawed on ice and diluted to a concentration of 1 mM in 0.3 M NaOH. After baseline absorbance of the dye was measured in a plate reader at 540 nm, 5 μL of peroxynitrite was added to each well (final concentration of 10 μM) and absorbance measurements were collected for one hour.

[2] = Superoxide scavenging in vitro (DHE fluorescence, xanthine/xanthine oxidase); format: biochemical; details: 55 μg/mL, one-way ANOVA p<0.0001
Procedure: In vitro superoxide scavenging activity of the tempo-PPS microspheres was evaluated using a dihydroethidium (DHE) fluorescence assay. DHE has been widely used to detect superoxide, which reacts with DHE to form a specific fluorescent product, 2-OH-ethidium (2OH-E). The effects of PPS and tempo-benzoate on superoxide were determined using a superoxide-generating, cell-free enzymatic system containing 0.046 U/ml xanthine oxidase and 0.2 mM xanthine. Xanthine was prepared in PBS−/− as a stock solution (1.21 mg/mL), and the appropriate volume of xanthine stock solution was added to the xanthine oxidase solution to reach the required final concentration. The xanthine/xanthine oxidase solution (100 μL) was added to wells in a black-walled, 96-well plate containing the following treatments: PBS, blank PPS microspheres (55 μg/mL), free tempo-benzoate (dissolved in acetonitrile then diluted to 5% acetonitrile, 55 μg/mL tempo-benzoate), and tempo-PPS microspheres (55 μg/mL microsphere concentration). Each well contained 10 μL of a treatment. […] After 10 minutes, 100 μL of the DHE solution was added to each well (10 uM final DHE concentration) and the fluorescence intensity was measured in a plate reader (Tecan Group Ltd., Mannedorf, Switzerland) over a time frame of 1 hour with an excitation of 405 nm and an emission of 570 nm. […]

[3] = Hydrogen peroxide scavenging in vitro (Amplex Red, xanthine/xanthine oxidase); format: biochemical; details: 1 hour of incubation, one-way ANOVA p<0.001
Procedure: H2O2-scavenging activity of the PPS microspheres was verified in vitro using an Amplex Red Hydrogen Peroxide/Peroxidase Assay kit according to the manufacturer's instructions. Xanthine and xanthine oxidase were used at the same concentrations as described in the DHE assay to generate a reaction solution containing both superoxide and hydrogen peroxide. The reaction solution was added to wells in a black-walled, 96-well plate containing either PBS, blank PPS microspheres (final concentrations of 60 μg/mL and 7 μg/mL), or free tempo-benzoate (final concentrations of 0.5 mg/mL and 60 μg/mL). The Amplex Red working solution was freshly prepared as described in the kit instructions using the included Amplex Red, horseradish peroxidase, and 1× reaction buffer. The working solution was then added to the wells and fluorescence was measured in a plate reader at 1 hour with an excitation of 530 nm and an emission of 590 nm.

[4] = tested on: mouse hind limb ischemia model; assay: Speckle variance OCT of vascular morphology in adductor and gastrocnemius regions (Example 2); format: in vivo, FVB mice; details: gastrocnemius muscle, day 3, vs saline
Description: Briefly, the femoral artery and vein of the right hind limb were ligated with 6-0 sutures proximal to the origins of the superficial epigastric artery and deep branch of the femoral artery, and proximal to the vessels the branch from the femoral artery near the knee. Major side branches were also ligated with 6-0 sutures before the ligated segment of the femoral artery and vein was excised. The incision was closed with interrupted 5-0 nylon sutures. In therapeutic experiments, treatments were injected intramuscularly in the ischemic limb following closure of the skin incision. […]
At 0, 3, 7, 14, 21, and 28 days post-surgery, the hind limb vasculature in the adductor and gastrocnemius muscle regions was imaged using a swept-source optical coherence tomography (OCT) system as described previously (26, 39). […] Speckle variance OCT volumes were acquired non-invasively through the skin in 4 mm×4 mm areas covering the two muscle regions, and average intensity projections in depth were used to visualize all vessels detected within the imaged volume. After image processing was performed to enhance contrast and enable vessel segmentation (39, 40), morphological parameters including vessel area density (total area filled by vessels/total area of imaged region) and vessel length fraction (total vessel length/total area of imaged region) were quantified.

[5] = Pilot studies with free curcumin in vitro; format: physicochemical
[6] = tested on: ROS levels in ischemic tissue; assay: Pilot studies with free curcumin in ischemic tissue; format: in vivo

Compound: TNF-α
increase in MMP-13 expression (MMP-13): ~20 fold

Compound: NC(=O)Nc1sc(-c2ccc(F)cc2)cc1C(N)=O [TPCA-1 in solution, TPCA-1]
MabCII fluorescence (exposed type II collagen) (type II collagen): not a significant reduction in fluorescence | MMPSense fluorescence (MMP-13 activity) (MMP-13 activity): not a significant reduction in fluorescence

Compound: O=C1O[C@H]([C@@H](O)CO)C(O)=C1O [Ascorbic acid, ascorbic acid]
relative bleaching [1]: 2%

Compound: CC1(C)CC(OC(=O)c2ccccc2)CC(C)(C)N1[O] [free tempo-benzoate, 4-hydroxy-TEMPO benzoate]
fluorescent signal from the DHE oxidation product compared to no treatment [2]: significantly reduce fluorescence | Amplex Red fluorescence [3]: significantly increases the fluorescent signal | vessel area density ([4]; p<0.01): saline-treated mice have significantly lower vessel area density | vessel length fraction ([4]; p<0.05): significantly lower in the saline group

behaviour of free curcumin in vitro [5]: formed crystals in vitro
Compound: COc1cc(/C=C/C(=O)CC(=O)/C=C/c2ccc(O)c(OC)c2)ccc1O [free curcumin, Curcumin]
ROS levels in ischemic tissue [6]: exacerbated ROS levels in ischemic tissue

Compound: SOD: bovine SOD (20 U/ml) used as a negative control treatment
fluorescent signal from the DHE oxidation product compared to no treatment [2]: further inhibited
